Patent US20130040882A1, “USE OF FIBROBLAST GROWTH FACTOR FRAGMENTS” (NOVARTIS AG, priority 2003, published 2013)

System: uterine gene expression
Test: Gene expression profiling (HGU133A) in the uterus of ovariectomized monkeys treated with estradiol, tamoxifen or raloxifene
Assay type: in vivo, cynomolgus monkeys (Macaca fascicularis)

## O=C(c1ccc(OCCN2CCCCC2)cc1)c1c(-c2ccc(O)cc2)sc2cc(O)ccc12 [raloxifene]
Compared with OVX controls
  Uterine expression increase: insulin-like GF binding protein 2 and insulin-like GF 1: approximately 2 fold
Cynomolgus monkey, in vivo
  Effect on transporter, redox, and cell cycle genes in the uterus (relative to estradiol): little or no effect
  Uterine expression changes: IGFBP 5, latent TGF beta binding protein 1, cysteine-rich angiogenic inducer 61: only modest changes
tamoxifen: except for LDL receptor adaptor protein
  Uterine expression of the remaining signal transduction genes examined: downregulated
uterus, OVX monkeys
  Fold change relative to OVX: ATPase, H+ transporting, lysosomal 38 kda, V0 subunit d isoform 1: 1.1 fold
  Fold change relative to OVX: ATPase, Na+/K+ transporting, beta 3 polypeptide: 0.9 fold
  Fold change relative to OVX: Biglycan: 2.4 fold
  Fold change relative to OVX: CDC28 protein kinase regulatory subunit 2: 0.8 fold
  Fold change relative to OVX: Cadherin 11, type 2, OB-cadherin (osteoblast): 1.3 fold
  Fold change relative to OVX: Calcium channel, voltage-dependent, beta 2 subunit: 0.8 fold
  Fold change relative to OVX: Catenin (cadherin-associated protein), alpha-like 1: 0.8 fold
  Fold change relative to OVX: Chitinase 3-like 1 (cartilage glycoprotein-39): 1.1 fold
  Fold change relative to OVX: Chloride intracellular channel 4: 1.4 fold
  Fold change relative to OVX: Chondroitin sulfate proteoglycan 2 (versican): 1.4 fold
  Fold change relative to OVX: Collagen, type I, alpha 1: 1.8 fold
  Fold change relative to OVX: Collagen, type IV, alpha 2: 1.4 fold
  Fold change relative to OVX: Collagen, type V, alpha 1: 1.2 fold
  Fold change relative to OVX: Collagen, type VI, alpha 3: 1.2 fold
  Fold change relative to OVX: Collagen, type VIII, alpha 2: 1.9 fold
  Fold change relative to OVX: Cyclin D1 (PRAD1: parathyroid adenomatosis 1): 1.2 fold
  Fold change relative to OVX: Cysteine-rich, angiogenic inducer, 61: 1.7 fold
  Fold change relative to OVX: Cytochrome c oxidase subunit via polypeptide 1: 1.0 fold
  Fold change relative to OVX: Cytochrome c oxidase subunit viia polypeptide 2 (liver): 1.1 fold
  Fold change relative to OVX: Dermatopontin: 1.5 fold
  Fold change relative to OVX: Dishevelled associated activator of morphogenesis 1: 0.9 fold
  Fold change relative to OVX: Fibroblast growth factor 2 (basic): 2.0 fold
  Fold change relative to OVX: Fibulin 1: 1.4 fold
  Fold change relative to OVX: Four and a half LIM domains 2: 0.9 fold
  Fold change relative to OVX: G1 to S phase transition 1: 0.9 fold
  Fold change relative to OVX: Growth associated protein 43: 1.7 fold
  Fold change relative to OVX: H2A histone family, member Y: 1.0 fold
  Fold change relative to OVX: Heparan sulfate proteoglycan 2 (perlecan): 1.2 fold
  Fold change relative to OVX: Histone H2A.F/Z variant: 1.0 fold
  Fold change relative to OVX: Insulin-like growth factor binding protein 2, 36 kda: 1.1 fold
  Fold change relative to OVX: Insulin-like growth factor binding protein 5: 2.0 fold
  Fold change relative to OVX: Integrin, beta 5: 1.5 fold
  Fold change relative to OVX: Intercrine-alpha, mrna sequence: 1.3 fold
  Fold change relative to OVX: LDL receptor adaptor protein: 1.0 fold
  Fold change relative to OVX: LIM and senescent cell antigen-like domains 1: 2.2 fold
  Fold change relative to OVX: Laminin, beta 1: 1.1 fold
  Fold change relative to OVX: Latent transforming growth factor beta binding protein 1: 1.8 fold
  Fold change relative to OVX: Matrix metalloproteinase 19: 0.9 fold
  Fold change relative to OVX: Mitogen-activated protein kinase kinase kinase kinase 4: 0.8 fold
  Fold change relative to OVX: Nidogen (enactin): 2.4 fold
  Fold change relative to OVX: Osteoglycin (osteoinductive factor, mimecan): 1.6 fold
  Fold change relative to OVX: Peroxiredoxin 1: 1.0 fold
  Fold change relative to OVX: Phosphatase and tensin homolog (mutated in multiple advanced cancers 1): 1.1 fold
  Fold change relative to OVX: Phospholipid transfer protein: 1.2 fold
  Fold change relative to OVX: Pituitary tumour-transforming 1 interacting protein: 1.5 fold
  Fold change relative to OVX: Procollagen C-endopeptidase enhancer: 1.7 fold
  Fold change relative to OVX: Procollagen-proline, 2-oxoglutarate 4-dioxygenase (proline 4-hydroxylase), alpha polypeptide II: 1.2 fold
  Fold change relative to OVX: Progesterone receptor: 1.9 fold
  Fold change relative to OVX: Protein tyrosine kinase 9: 1.2 fold
  Fold change relative to OVX: SET domain, bifurcated 1: 1.1 fold
  Fold change relative to OVX: SPARC-like 1 (mast9, hevin): 1.7 fold
  Fold change relative to OVX: Secreted frizzled-related protein 1: 1.6 fold
  Fold change relative to OVX: Secreted frizzled-related protein 4: 0.8 fold
  Fold change relative to OVX: Secreted protein, acidic, cysteine-rich (osteonectin): 1.7 fold
  Fold change relative to OVX: Serine (or cysteine) proteinase inhibitor, clade H (heat shock protein 47), member 1, (collagen binding protein 1): 1.4 fold
  Fold change relative to OVX: Solute carrier family 22 (organic cation transporter), member 1-like: 1.0 fold
  Fold change relative to OVX: Solute carrier family 25 (mitochondrial carrier; adenine nucleotide translocator), member 5: 1.1 fold
  Fold change relative to OVX: Stem cell growth factor; lymphocyte secreted C-type lectin: 1.2 fold
  Fold change relative to OVX: Tenascin C (hexabrachion): 1.0 fold
  Fold change relative to OVX: Testis Enhanced Gene Transcript (Bax Inhibitor 1): 1.1 fold
  Fold change relative to OVX: Thioredoxin interacting protein: 1.0 fold
  Fold change relative to OVX: Transforming growth factor, beta-induced, 68 kda: 1.7 fold
  Fold change relative to OVX: Ubiquinol-cytochrome c reductase, Rieske iron-sulfur polypeptide 1: 1.0 fold
  Fold change relative to OVX: Wingless-type MMTV integration site family, member 2B: 1.4 fold
  Fold change relative to OVX: Wingless-type MMTV integration site family, member 16: 0.9 fold
  Fold change relative to SHAM control: ATPase, H+ transporting, lysosomal 38 kda, V0 subunit d isoform 1: 1.0 fold
  Fold change relative to SHAM control: ATPase, Na+/K+ transporting, beta 3 polypeptide: 0.5 fold
  Fold change relative to SHAM control: Biglycan: 0.9 fold
  Fold change relative to SHAM control: CDC28 protein kinase regulatory subunit 2: 0.5 fold
  Fold change relative to SHAM control: Chitinase 3-like 1 (cartilage glycoprotein-39): 0.8 fold
  Fold change relative to SHAM control: Chloride intracellular channel 4: 0.7 fold
  Fold change relative to SHAM control: Chondroitin sulfate proteoglycan 2 (versican): 1.0 fold
  Fold change relative to SHAM control: Collagen, type I, alpha 1: 0.7 fold
  Fold change relative to SHAM control: Collagen, type IV, alpha 2: 0.8 fold
  Fold change relative to SHAM control: Collagen, type V, alpha 1: 0.6 fold
  Fold change relative to SHAM control: Collagen, type VI, alpha 3: 0.7 fold
  Fold change relative to SHAM control: Collagen, type VIII, alpha 2: 1.1 fold
  Fold change relative to SHAM control: Cyclin D1 (PRAD1: parathyroid adenomatosis 1): 1.3 fold
  Fold change relative to SHAM control: Cysteine-rich, angiogenic inducer, 61: 0.9 fold
  Fold change relative to SHAM control: Cytochrome c oxidase subunit via polypeptide 1: 0.8 fold
  Fold change relative to SHAM control: Cytochrome c oxidase subunit viia polypeptide 2 (liver): 1.1 fold
  Fold change relative to SHAM control: Dermatopontin: 0.8 fold
  Fold change relative to SHAM control: Fibroblast growth factor 2 (basic): 1.0 fold
